Patent EP1379634B1 (THE UNIVERSITY OF GEORGIA RESEARCH FOUNDATION, INC., priority 2001, dated 2002)
Residues, ends and D or L forms follow the SMILES beside them. *: point of attachment. Cbz = O=C(OCc1ccccc1)*; CH2F = FC*

Tests used:
[1] = system: purified Taenia solium cysteine protease; assay: Protease inactivator inhibition assay against cocktail, EC100 and Ki (Step VII); format: biochemical
Text: Once the protease inactivators were synthesized in the organic laboratory, they were to be tested for the lowest efficacious concentrations at which they induced 100% inhibition of the target protease (EC100). The top percent cocktail that was employed in the final vehicle selection step of Step III was employed as the source of competition for the inhibitors. In this case, this was the 7.9% cocktail that was comprised of Z-FR-AFC, Z-FAR-AFC, Z-AP-AFC, Z-AAK-AFC, and Z-VLR-AFC. The final result would be a ranking of transition state candidate protease inactivators with a high ranking directly correlating to a low EC100 value. The following steps describe the assay: • Step A: Initial Screening. To set up the test control, each protease inactivator was first incubated with the 5% cocktail (which provided the final differentiation of vehicles in Step III). To begin with, the protease inactivator was incubated at a concentration of 3 X 10^-9M in 500 ul of assay buffer (0.2 M Citrate, pH 4.9, supplemented with 10mM L-cysteine). This concentration was determined by a series of inhibitor dilutions to be the best inhibitor concentration at which a differentiation in inhibitor potential could be noted. Next, a concentration equal to 4 X 10^-5M for each of the individual cocktail components, was added to the mix. The components were allowed to equilibrate for a period of 30 minutes. Finally, active purified enzyme was added to the tubes at a concentration which was always at least 50 times less than the concentration of the lowest concentration in the mix (so as to provide saturating conditions.) This concentration varied from purification to purification, and the amount that was added depended upon the yield and specific activity of the purified protease. Positive controls were set up similarly as described for test controls, except that solvent was added in substitution for the protease inactivator (in a volume equal to the […] volume addition). All of the protease inactivators could be dissolved in dimethylsulfoxide (DMSO), and therefore, this was the solvent of choice. Negative controls were set up by adding the protease inactivator and the cocktail substrates in a tube, without the protease. All potential non-proteolytic induced liberation of AFC was therefore controlled for in this tube. All controls were set up in triplicate, and experiments repeated a minimum of five times. The assays were incubated at 37°C, overnight. Percent inhibition was calculated as: %Inhibition = ((AFC positive for "SI"−AFC negative for "SI")−(AFC test−AFC negative for "SI"))/(AFC positive for "SI"−AFC negative for "SI") × 100 [formula] • Step B: Inhibitor Dilution Studies and formation of a ranked list of protease inactivators based upon EC100 values. […] Because of this, a dilution study was required in order to determine a viable ranking. Thus, the concentration of each of the protease inactivators was lowered with a dose response setup until the most efficacious concentration for 100% inhibition (EC100) could be determined. The inhibitors had to be diluted to nanomolar levels in order to establish a differentiable EC100 pattern. The final result of the assay was a ranked candidate list of protease inactivators. A lower EC100 was attributable to a higher ranking and vice-versa. • Step C: Determination of Inhibitor Ki and mode of inhibition, and re-ranking of EC100 list with inhibitor Ki. Ki of each of the top ranked protease inactivators, based upon low EC100 values, was assessed next for the top 5 EC100 inhibitors.
In order to determine Ki, all of the high Vmax cocktail substrates were employed for Ki determination (since Ki of the inhibitor for the enzyme is the same regardless of the substrate). To insure the highest accuracy, Ki was to be determined upon a minimum of at least three of the high Kcat substrates. Nonlinear fitting and the Dixon plot were both employed to determine Ki of the top ranked protease inactivators. […]

BALB/c mice = assay: Observation of side effects in treated mice; format: in vivo
[2] = system: normal BALB/c mouse splenocytes; assay: Splenocyte proliferation (3H-thymidine incorporation) with or without Con-A; format: cell-based
Cathepsin B = Cathepsin B (Homo sapiens, UniProt P07858); assay: Selectivity test (Steps VI and IX), Cathepsin B; format: biochemical; conditions: vehicle 4 X 10^-5 M; pH 6.1, substrate Z-ARR-AFC; 40 µM
Description: In order to perform the assay, the vehicle (for Step VI) or inhibitor (for Step IX) were incubated with the appropriate substrate in the correct assay buffer and allowed to equilibrate. Subsequently, the protease was added, and the assay was allowed to incubate for an appropriate time. The concentrations used in this experiment were as follows: Vehicle was set up at 4 X 10^-5 M in final assay buffer; Inhibitor was set up at 3 X 10^-10 M in the final assay buffer. Preferably the dosages employed should be the minimal amount of vehicle or inhibitor necessary to induce inhibition. […] Substrates were set up based upon the preferred substrate for cleavage of the particular enzyme.
Positive controls were set up similarly as described for test controls, except that a solvent blank was added in substitution for the inhibitor or vehicle (in a volume equal to the volume of inhibitor or vehicle addition). All of the inhibitors and vehicles could be dissolved in dimethylsulfoxide (DMSO), and therefore, this was the solvent of choice. Negative controls were set up by adding the inhibitor or vehicle and the preferred substrates in a tube without the protease. […]
Percent inhibition was calculated as: %Inhibition = ((AFC positive for "SI"−AFC negative for "SI")−(AFC test−AFC negative for "SI"))/(AFC positive for "SI"−AFC negative for "SI") × 100 [formula] […]

Molecule | % Inhibition of T. solium CP in vitro ([1]; concentration not stated in Table 4) | ranking by EC100 ([1]; dilution study, nanomolar levels) | side effects in treated animals (BALB/c mice; long or short-term period) | side effects in treated mice (BALB/c mice; long-term studies) | side effects / inhibitor toxicity in treated mice (BALB/c mice; mouse, in vivo) | proliferative response (3H-thymidine incorporation) ([2]; inhibitor alone) | toxicity to splenocytes in vitro ([2]; preliminary results) | % inhibition (Cathepsin B)
CC(C)C[C@H](NC(=O)OCc1ccccc1)C(=O)N[C@@H](CC(C)C)C(=O)N[C@@H](Cc1ccc(O)cc1)C(=O)CF [Z-LLY-FMK, Z-Leu-Leu-Tyr-FMK] (Cbz-Leu-Leu-Tyr-CH2F) | 97% | top inhibitors | only negligible side effects | no side effects | no mice showed effects of inhibitor toxicity | do not induce a proliferative response | nontoxic | 
Mu-Leu-Tyr-AFC [Mu-LY-AFC] |  |  |  |  |  |  |  | 0%
